Assay results: patent publication US9295732B2, “Conjugated TLR7 and/or TLR8 and TLR2 polycationic agonists” (CAYLA, priority 2013, dated 2016)

How the values were obtained:
plasmid DNA (pDNA) = assay: Gel shift (mobility shift) assay of pDNA complexation; assay type: binding; conditions: pDNA:molecule ratio 3:24 (w:w), 0.8% agarose gel, compared to pDNA alone
Method: Then, 10 μl of pDNA:TLR7-TLR2 polyamine molecule complexes and 2 μl of charge buffer were mixed and loaded into wells of a 0.8% agarose gel. Samples were migrated through the gel in TAE buffer under 135 voltage for 21 mins and the migration of the pDNA was visualized following ethidium bromide staining under UV light. The ability of TLR7-TLR2 polyamine molecules to complex/associate with the pDNA was identified by partial or complete retardation of the pDNA migration toward the anode in the gel compared to pDNA alone. […] Ethidium bromide intercalation of pDNA in complex with molecules allowed visualization of complexed pDNA as a smear in the wells of the gel.

human TLR2 = target: T1, human TLR2 (Homo sapiens, UniProt O60603); assay: HEK-Blue hTLR2 NF-κB/AP-1 SEAP reporter assay; assay type: cell-based; conditions: HEK-Blue hTLR2 cells, 10 μg/mL to 10 pg/ml, 24 hours, OD at 655 nm, FIG. 3
T1 construct: host or cells: HEK293 (HEK-Blue™ hTLR2)
Method: (§1) Cell-based assays were carried out using TLR7 and TLR2 reporter cell lines (InvivoGen). The reporter cell lines are engineered HEK293 cells, a human embryonic kidney cell line (ATCC, CRL-1573) that stably express either murine TLR7 (HEK-Blue™ mTLR7) or human TLR7 (HEK-Blue™ hTLR7) or human TLR2 (HEK-Blue™ hTLR2) with an NF-κB-inducible secreted embryonic alkaline phosphatase (SEAP) as the reporter gene. The SEAP reporter gene is under the control of the NF-κB and AP-1-inducible promoter, which, upon treatment with a corresponding TLR ligand and activation of NF-κB and AP-1, induces the production of SEAP. Detection of SEAP is measured following culturing cells in HEK-Blue™ Detection media (InvivoGen). HEK-Blue™ Detection contains a SEAP substrate that when hydrolysed by SEAP produces a colorimetric change allowing for detection of SEAP as the protein is secreted. […] These assays were carried out using RAW-Blue™ Cells (InvivoGen), derived from RAW 264.7 mouse leukemic monocyte macrophage cell line (ATCC, CRL 2278) stably overexpressing a NF-B/AP-1 inducible SEAP reporter constructs.
(§2) To perform the assay, cells were seeded on 96 well microliter plates at 50,000 or 100,000 cells per well for HEK-Blue™ Cells and RAW-Blue™ Cells respectively, and cultured at 37° C. in the presence of the conjugated compounds The TLR7-TLR2 polyamine molecules were prepared as follows: First, stock solutions of the conjugated compounds of the invention were prepared in ethanol or water to a concentration of 10 mg/ml.
(§3) The working dilutions of the conjugated TLR7-TLR2 polyamine agonists made up in water or PBS were directly added to the reporter cell lines at a final concentration ranging from 10 μg/mL to 10 pg/ml and incubated at 37° C. for 24 hours. After 24 hours of incubation, the effect on reporter gene activity was determined by reading the OD at 655 nm using iMark™ Microplate Reader (BIO-RAD).

murine TLR7 = target: T2, murine TLR7 (Mus musculus, UniProt P58681); assay: HEK-Blue mTLR7 NF-κB/AP-1 SEAP reporter assay; assay type: cell-based; conditions: HEK-Blue mTLR7 cells, 10 μg/mL to 10 pg/ml, 24 hours, OD at 655 nm, FIG. 2
T2 construct: host or cells: HEK293 (HEK-Blue™ mTLR7)
T2 sequence (P58681 27-1050): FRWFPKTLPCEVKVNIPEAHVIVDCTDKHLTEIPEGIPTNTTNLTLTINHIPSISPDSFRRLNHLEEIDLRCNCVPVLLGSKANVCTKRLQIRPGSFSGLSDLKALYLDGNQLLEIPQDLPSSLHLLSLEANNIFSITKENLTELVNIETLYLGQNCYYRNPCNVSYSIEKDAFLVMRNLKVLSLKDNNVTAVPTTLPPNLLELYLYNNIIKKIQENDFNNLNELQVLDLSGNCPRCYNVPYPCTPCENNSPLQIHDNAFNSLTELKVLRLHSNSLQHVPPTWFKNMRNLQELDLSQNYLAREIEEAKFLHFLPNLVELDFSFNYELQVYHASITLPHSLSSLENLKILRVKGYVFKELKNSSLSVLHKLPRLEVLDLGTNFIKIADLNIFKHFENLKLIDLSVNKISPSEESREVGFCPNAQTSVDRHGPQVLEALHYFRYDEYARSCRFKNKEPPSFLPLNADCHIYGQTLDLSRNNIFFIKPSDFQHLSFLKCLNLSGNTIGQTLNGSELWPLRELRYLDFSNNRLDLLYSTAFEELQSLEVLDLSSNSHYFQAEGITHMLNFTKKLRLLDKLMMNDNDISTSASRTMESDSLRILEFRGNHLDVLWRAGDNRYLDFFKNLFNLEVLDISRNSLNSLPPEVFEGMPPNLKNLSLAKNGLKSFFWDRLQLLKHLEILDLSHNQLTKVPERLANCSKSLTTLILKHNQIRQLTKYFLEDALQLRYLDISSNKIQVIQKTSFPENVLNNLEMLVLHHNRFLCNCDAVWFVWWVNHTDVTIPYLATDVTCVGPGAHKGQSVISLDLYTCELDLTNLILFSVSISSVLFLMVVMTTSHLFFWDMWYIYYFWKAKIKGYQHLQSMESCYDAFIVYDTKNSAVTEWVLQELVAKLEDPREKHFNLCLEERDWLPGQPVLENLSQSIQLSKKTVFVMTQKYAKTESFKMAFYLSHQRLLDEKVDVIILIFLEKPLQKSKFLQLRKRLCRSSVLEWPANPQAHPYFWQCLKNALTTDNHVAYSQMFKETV
Method: as §1, §2, §3

human TLR7 = target: T3, human TLR7 (Homo sapiens, UniProt Q9NYK1); assay: HEK-Blue hTLR7 NF-κB/AP-1 SEAP reporter assay; assay type: cell-based; conditions: HEK-Blue hTLR7 cells, 10 μg/mL to 10 pg/ml, 24 hours, OD at 655 nm, FIG. 1
T3 construct: host or cells: HEK293 (HEK-Blue™ hTLR7)
T3 sequence (Q9NYK1 27-1049): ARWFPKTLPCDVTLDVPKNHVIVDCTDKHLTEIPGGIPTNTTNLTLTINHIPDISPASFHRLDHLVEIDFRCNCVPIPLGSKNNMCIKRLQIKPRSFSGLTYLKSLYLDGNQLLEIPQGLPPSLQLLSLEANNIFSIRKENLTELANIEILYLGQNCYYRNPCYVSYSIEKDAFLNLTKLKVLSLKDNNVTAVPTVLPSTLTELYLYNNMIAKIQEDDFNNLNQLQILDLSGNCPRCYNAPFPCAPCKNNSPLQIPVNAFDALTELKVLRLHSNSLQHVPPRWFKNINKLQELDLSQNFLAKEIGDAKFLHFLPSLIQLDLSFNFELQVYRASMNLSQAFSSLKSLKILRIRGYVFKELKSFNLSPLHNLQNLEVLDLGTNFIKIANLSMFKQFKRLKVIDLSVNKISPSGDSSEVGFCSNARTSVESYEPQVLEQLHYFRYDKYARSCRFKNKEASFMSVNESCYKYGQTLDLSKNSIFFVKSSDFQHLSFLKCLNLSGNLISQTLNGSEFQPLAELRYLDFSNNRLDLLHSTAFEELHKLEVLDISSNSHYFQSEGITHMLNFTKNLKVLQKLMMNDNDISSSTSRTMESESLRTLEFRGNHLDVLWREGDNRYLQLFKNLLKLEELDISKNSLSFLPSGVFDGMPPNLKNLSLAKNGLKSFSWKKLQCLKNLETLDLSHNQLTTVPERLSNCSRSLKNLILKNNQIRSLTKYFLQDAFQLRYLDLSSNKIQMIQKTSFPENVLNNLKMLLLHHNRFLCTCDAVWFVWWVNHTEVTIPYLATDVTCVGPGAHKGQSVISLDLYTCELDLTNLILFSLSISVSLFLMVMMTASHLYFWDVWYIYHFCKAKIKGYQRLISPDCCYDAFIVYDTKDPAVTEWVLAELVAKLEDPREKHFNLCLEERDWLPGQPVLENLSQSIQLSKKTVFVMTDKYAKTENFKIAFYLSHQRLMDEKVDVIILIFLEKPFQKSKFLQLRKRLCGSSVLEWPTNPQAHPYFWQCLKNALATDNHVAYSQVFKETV
Method: as §1, §2, §3

[1] = tested on: endogenous TLR2 and TLR7 in RAW-Blue™ Cells; assay: RAW-Blue Cells NF-κB/AP-1 SEAP reporter assay; assay type: cell-based, mouse; conditions: 24 hours, OD at 655 nm, FIG. 4
Method: as §1, §2, §3

T1 sequence (O60603 21-784): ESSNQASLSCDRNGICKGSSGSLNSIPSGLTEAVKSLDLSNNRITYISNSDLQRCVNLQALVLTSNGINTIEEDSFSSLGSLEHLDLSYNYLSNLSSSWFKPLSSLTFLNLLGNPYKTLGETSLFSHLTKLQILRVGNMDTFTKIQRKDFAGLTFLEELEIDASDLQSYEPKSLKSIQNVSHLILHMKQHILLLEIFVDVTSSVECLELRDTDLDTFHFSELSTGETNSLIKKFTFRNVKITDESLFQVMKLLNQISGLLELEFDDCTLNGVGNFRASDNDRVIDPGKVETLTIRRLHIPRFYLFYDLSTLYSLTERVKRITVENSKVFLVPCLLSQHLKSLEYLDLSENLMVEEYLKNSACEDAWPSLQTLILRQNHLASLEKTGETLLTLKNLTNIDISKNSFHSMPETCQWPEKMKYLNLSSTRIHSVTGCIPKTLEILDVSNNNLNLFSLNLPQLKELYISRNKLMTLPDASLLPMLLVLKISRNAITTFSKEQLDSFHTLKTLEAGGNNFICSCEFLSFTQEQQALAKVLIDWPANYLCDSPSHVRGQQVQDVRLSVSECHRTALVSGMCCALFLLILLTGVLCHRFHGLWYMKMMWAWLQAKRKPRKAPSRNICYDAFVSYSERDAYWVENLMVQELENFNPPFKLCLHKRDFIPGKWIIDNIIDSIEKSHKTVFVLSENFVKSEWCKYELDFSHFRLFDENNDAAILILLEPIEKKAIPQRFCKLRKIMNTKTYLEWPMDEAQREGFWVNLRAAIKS

| Structure (SMILES) | ability to complex pDNA (retardation of pDNA migration in agarose gel) (plasmid DNA (pDNA)) | ability to activate hTLR2 (human TLR2) | ability to activate mTLR7 (murine TLR7) | ability to activate hTLR7 (human TLR7) | ability to activate endogenous TLR2 and TLR7 in RAW-Blue Cells [1] |
| --- | --- | --- | --- | --- | --- |
| CCCCCCCCCCCCCCCC(=O)OCC(CSC[C@H](N)C(=O)Nc1ccc(Cn2c(O)nc3c(N)nc(NCCCC)nc32)cc1)OC(=O)CCCCCCCCCCCCCCC (stereo partly drawn) [CL401, reference compound] | lacks the ability to complex pDNA |  |  |  |  |
| CCCCCCCCCCCCCCCC(=O)OCC(CSC[C@H](N)C(=O)N[C@@H](CO)C(=O)N[C@@H](CCCCN)C(=O)N[C@@H](CCCCN)C(=O)N[C@@H](CCCCNC(=O)c1ccc(Cn2c(O)nc3c(N)nc(NCCCC)nc32)cc1)C(=O)N[C@@H](CCCCN)C(=O)O)OC(=O)CCCCCCCCCCCCCCC (stereo partly drawn) [CL530, (2S,5S,8S,11S,14S,17R)-17-amino-5-(4-(4-((6-amino-2-(butylamino)-8-hydroxy-9H-purin-9-yl)methyl)benzamido)butyl)-2,8,11-tris(4-aminobutyl)-14-(hydroxymethyl)-4,7,10,13,16,24-hexaoxo-21-(palmitoyloxy)-23-oxa-19-thia-3,6,9,12,15-pentaaza nonatriacontan-1-oic acid] | inability to migrate through an agarose gel | activate hTLR2 | activate mTLR7 | activate hTLR7 | activate endogenous TLR2 and TLR7 |
| CCCCCCCCCCCCCCCC(=O)OCC(CSC[C@H](N)C(=O)N[C@@H](CO)C(=O)N[C@@H](CCCCN)C(=O)N[C@@H](CCCCNC(=O)c1ccc(Cn2c(O)nc3c(N)nc(NCCCC)nc32)cc1)C(=O)N[C@@H](CCCCN)C(=O)N[C@@H](CCCCN)C(=O)O)OC(=O)CCCCCCCCCCCCCCC (stereo partly drawn) [CL531, (2S,5S,8S,11S,14S,17R)-17-amino-8-(4-(4-((6-amino-2-(butylamino)-8-hydroxy-9H-purin-9-yl)methyl)benzamido)butyl)-2,5,11-tris(4-aminobutyl)-14-(hydroxymethyl)-4,7,10,13,16,24-hexaoxo-21-(palmitoyloxy)-23-oxa-19-thia-3,6,9,12,15-pentaaza nonatriacontan-1-oic acid] | inability to migrate through an agarose gel | activate hTLR2 | activate mTLR7 | activate hTLR7 | activate endogenous TLR2 and TLR7 |
| CCCCCCCCCCCCCCCC(=O)OCC(CSC[C@H](N)C(=O)N[C@@H](CO)C(=O)N[C@@H](CCCCNC(=O)c1ccc(Cn2c(O)nc3c(N)nc(NCCCC)nc32)cc1)C(=O)N[C@@H](CCCCN)C(=O)N[C@@H](CCCCN)C(=O)N[C@@H](CCCCN)C(=O)O)OC(=O)CCCCCCCCCCCCCCC (stereo partly drawn) [CL533, (2S,5S,8S,11S,14S,17R)-17-amino-11-(4-(4-((6-amino-2-(butylamino)-8-hydroxy-9H-purin-9-yl)methyl)benzamido)butyl)-2,5,8-tris(4-aminobutyl)-14-(hydroxylmethyl)-4,7,10,13,16,24-hexaoxo-21-(palmitoyloxy)-23-oxa-19-thia-3,6,9,12,15-pentaazanonatria contan-1-oic acid] | inability to migrate through an agarose gel | activate hTLR2 | activate mTLR7 | activate hTLR7 | activate endogenous TLR2 and TLR7 |
| CCCCCCCCCCCCCCCC(=O)N[C@@H](CSCC(COC(=O)CCCCCCCCCCCCCCC)OC(=O)CCCCCCCCCCCCCCC)C(=O)N[C@@H](CO)C(=O)N[C@@H](CCCCN)C(=O)N[C@@H](CCCCN)C(=O)N[C@@H](CCCCNC(=O)c1ccc(Cn2c(O)nc3c(N)nc(NCCCC)nc32)cc1)C(=O)N[C@@H](CCCCN)C(=O)O (stereo partly drawn) [CL535, (2S,5S,8S,11S,14S,17R)-5-(4-(4-((6-amino-2-(butylamino)-8-hydroxy-9H-purin-9-yl)methyl)benzamido)butyl)-2,8,11-tris(4-aminobutyl)-14-(hydroxymethyl)-4,7,10,13,16,24-hexaoxo-17-palmitamido-21-(palmitoyloxy)-23-oxa-19-thia-3,6,9,12,15-pentaazanonatriacontan-1-oic acid] | inability to migrate through an agarose gel | activate hTLR2 | activate mTLR7 | activate hTLR7 | activate endogenous TLR2 and TLR7 |
